Activity data for five compounds are collected here from ChEMBL document CHEMBL1147228, “Dammarane-type triterpenes from the Brazilian medicinal plant Cordia multispicata” (J Nat Prod, 2003).

The test can be described thus: Antiandrogenic activity assessed as inhibition of testosterone 5alpha reductase at 100 ug/mL. More on the design: scale not given: the % may be the effect or the level left.

Regarding `C/C(=C\C(O)C1OC1(C)C)[C@H]1CC[C@]2(C)[C@@H]1C[C@@H](O)[C@@H]1[C@]34CC[C@](O)(OC3)C(C)(C)[C@@H]4CC[C@]12C` (stereo not given in full), the Activity was found to be 15.1%.
As for `COC(C)(C)C(O)C(O)/C=C(\C)[C@H]1CC[C@]2(C)[C@@H]1C[C@@H](O)[C@@H]1[C@]34CC[C@](O)(OC3)C(C)(C)[C@@H]4CC[C@]12C` (stereo not given in full), the figure is 19%; as for `C=C(C)C(O)C(O)/C=C(\C)[C@H]1CC[C@]2(C)[C@@H]1C[C@@H](O)[C@@H]1[C@]34CC[C@](O)(OC3)C(C)(C)[C@@H]4CC[C@]12C` (stereo not given in full), 18%; as for `C/C(=C\C(O)C(O)C(C)(C)O)[C@H]1CC[C@]2(C)[C@@H]1C[C@@H](O)[C@@H]1[C@]34CC[C@](O)(OC3)C(C)(C)[C@@H]4CC[C@]12C` (stereo not given in full), -2.09%.
As for `C/C(=C\C(O)C1OC1(C)C)[C@H]1CC[C@]2(C)[C@@H]1C[C@@H](O)[C@@H]1[C@@]3(C)CCC(=O)C(C)(C)[C@@H]3CC[C@]12C` (stereo not given in full), the figure is 43.1%.
